Data as given in patent US20150218652A1, “METHODS FOR DIAGNOSIS AND TREATMENT OF CANCER” (THE REGENTS OF THE UNVERSITY OF COLORADO, a body corporate, priority 2012, published 2015).
Where two headings read alike, the source gives them in different places.

Experiments:
[1] = system: CUTO-3 cells harboring the NTRK1-MPRIP gene fusion; test: Immunoblot analysis of CUTO-3 cells; format: cell-based
Excerpt: Colorado University Thoracic Oncology (CUTO) 3 cells were derived from a pleural effusion from the index patient harboring the NTRK1-MPRIP gene fusion.

[2] = system: KM12 cells harboring the TPM3-NTRK1 fusion; test: MTS proliferation assay of KM12 cells; format: cell-based
Procedure: KM12 cells harboring the TPM3-NTRK1 fusion were lysed following 5 h treatment with the indicated doses of inhibitors and subject to immunoblot analysis (n=3).
Proliferation of KM12 cells treated with the indicated drugs and doses were assayed for cell proliferation by MTS assay.

[3] = system: Ba/F3 cells expressing NTRK1-MPRIP; test: MTS proliferation assay of Ba/F3 cells expressing NTRK1-MPRIP; format: cell-based; details: n=5
Excerpt: (§1) The half maximal inhibitory concentration (IC50) values are listed (nM).

[4] = target: T1, TRKA (Homo sapiens, UniProt P04629); test: Immunoprecipitation of TRKA-HA from 293T cells and anti-phosphotyrosine immunoblot; format: cell-based; details: 293T cells, 1 μM, 5 hours, vs DMSO control
T1 construct: the inventors expressed full length TRKA in 293T cells; expressed in transfected cells; host or cells: 293T cells, transient transfection of pCDH-MCS1-EF1-puro carrying NTRK1-HA

[5] = target: T1, TRKA; test: Immunoblot of 293T cell lysates expressing TRKA-HA: TRKA and downstream signaling; format: cell-based; details: 293T cells, 1 μM, 5 hours, presence or absence of NGF
[6] = system: Ba/F3 cells expressing NTRK1 fusions; test: MTS proliferation assay of Ba/F3 cells expressing NTRK1 fusions; format: cell-based; details: n=5, similar to Ba/F3 cells expressing ALK or ROS1 fusion constructs
Excerpt: as §1

[7] = system: ROS1 gene fusions; details: lung cancer patients harboring ROS1 gene fusions; cited from earlier work

T1 sequence (P04629 33-796): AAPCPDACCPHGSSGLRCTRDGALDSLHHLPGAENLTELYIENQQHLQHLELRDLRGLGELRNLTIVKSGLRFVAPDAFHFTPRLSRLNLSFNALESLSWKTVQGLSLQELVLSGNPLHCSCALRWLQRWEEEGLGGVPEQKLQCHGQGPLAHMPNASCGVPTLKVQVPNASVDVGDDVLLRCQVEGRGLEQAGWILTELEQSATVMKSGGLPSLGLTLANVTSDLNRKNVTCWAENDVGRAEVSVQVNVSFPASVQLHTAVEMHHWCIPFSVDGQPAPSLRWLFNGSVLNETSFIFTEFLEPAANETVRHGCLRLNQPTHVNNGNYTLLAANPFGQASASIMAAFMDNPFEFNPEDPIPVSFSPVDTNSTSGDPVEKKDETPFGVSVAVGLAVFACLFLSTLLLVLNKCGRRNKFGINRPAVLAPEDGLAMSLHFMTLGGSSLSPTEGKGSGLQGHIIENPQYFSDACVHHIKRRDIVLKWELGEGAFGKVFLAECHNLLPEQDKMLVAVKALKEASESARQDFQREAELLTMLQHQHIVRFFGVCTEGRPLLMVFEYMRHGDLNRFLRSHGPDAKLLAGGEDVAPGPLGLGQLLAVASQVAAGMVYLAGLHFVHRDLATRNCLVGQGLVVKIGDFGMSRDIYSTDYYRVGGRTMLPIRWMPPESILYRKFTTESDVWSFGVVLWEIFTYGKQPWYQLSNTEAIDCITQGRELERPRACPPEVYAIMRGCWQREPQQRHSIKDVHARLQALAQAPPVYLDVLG

| Structure (SMILES) | inhibition of pERK [1] | inhibition of pTRKA [1] | inhibition of proliferation of KM12 cells [2] | inhibition of proliferation [3] | Phosphorylation of TRKA (anti-phosphotyrosine 4G10 after HA immunoprecipitation) [4] | inhibition of proliferation of KM12 cells ([2]; MTS assay) | phosphorylation of AKT [5] | phosphorylation of ERK [5] | phosphorylation of TRKA (phosphotyrosine 490, 674, 675) [5] | inhibition of cell proliferation of Ba/F3 expressing NTRK1 fusions [6] | patient response [7] |
| --- | --- | --- | --- | --- | --- | --- | --- | --- | --- | --- | --- |
| O=C(Nc1cnn2ccc(N3CCC[C@@H]3c3cc(F)ccc3F)nc12)N1CC[C@H](O)C1 [ARRY-470] | inhibition | inhibition | inhibited | inhibition of proliferation | – | – | – | – | – | – | – |
| C[C@]12O[C@H](C[C@]1(O)CO)n1c3ccccc3c3c4c(c5c6ccccc6n2c5c31)CNC4=O [CEP-701] | – | – | – | inhibition of proliferation | significantly reduced | inhibited | inhibited phosphorylation | inhibited phosphorylation | inhibited phosphorylation | – | – |
| C[C@@H](Oc1cc(-c2cnn(C3CCNCC3)c2)cnc1N)c1c(Cl)ccc(F)c1Cl [crizotinib] | – | – | – | – | – | inhibited | – | decreased phosphorylation | decreased phosphorylation | inhibition | respond |
